Reference: US12239643B2, “Therapeutic agent for inflammatory diseases, autoimmune diseases, fibrotic diseases, and cancer diseases” (MEIJI SEIKA PHARMA CO., LTD., priority 2018, dated 2025)

Legend:
[1] = system: type II collagen-induced arthritis, DBA-1 JNCrlj mice; assay: Mouse CIA (arthritis) model; type: in vivo; conditions: oral, day 31 after the initial sensitization of type II collagen
Description: Evaluation was carried out using male DBA-1 JNCrlj mice (6 to 8 weeks of age). First, 150 μg/0.1 mL of type II collagen (bovine)/ACF emulsion was intradermally administered to the mouse ridge to cause primary sensitization. Twenty-one days later, 100 μg/0.1 mL of type II collagen (bovine)/AIF emulsion was similarly intradermally administered to the ridge to cause secondary sensitization. Note that, in the blank group, saline was intradermally administered to the ridge at the first sensitization and second sensitization. Next, for 10 days from the day of secondary sensitization, 0.1 to 20 mg/kg of the test compound dissolved or suspended in 0.5% w/v methylcellulose (0.5% MC) was orally administered once or twice a day.
The arthritis score of each limb was judged to be 0 to 4 by visual inspection and palpation (0: no symptoms, 1: one finger is red and swollen, 2: two or more fingers or in step is red and swollen, 3: fingers, in step, and heel are red and swollen, 4: movement of joints throughout the limb is poor), and the total of the limbs was used as the individual score, and the average score of the individual group administered with each test compound was calculated and used as the arthritis score. In addition, the foot volume (mL) of the left and right hind limbs was measured using a foot volume measuring device, and the edema rate was calculated by the following formula. Edema Rate (%)={(Left and Right Added Footpad Volume After Sensitization−Left and Right Added Footpad Volume Before Sensitization)/Left and Right Added Footpad Volume Before Sensitization}×100
The arthritis score of each test compound on day 31 after the initial sensitization of type II collagen was evaluated by the above method in accordance with the following evaluated basis; A: less than 2, B: 2 or more and less than 3, and C: 3 or more. In addition, the edema rate of each test compound on day 31 after the initial sensitization of type II collagen was evaluated in accordance with the following evaluated basis; A: less than 10%, B: 10% or more and less than 20%, and C: 20% or more. As a result of using apremilast as the test compound, the arthritis score and the edema rate were both evaluated as B. On the other hand, as a result of using the compound obtained in Example 248 as the test compound, the arthritis score and the edema rate were both evaluated as A.

IL-23 = assay: Cytokine suppression using human peripheral blood mononuclear cells: IL-23; type: cell-based; conditions: human PBMC, lipopolysaccharide 1 ng/mL; read-out: IL-23 Inhibitory Activity, Human PBMC (Test Example 4)
Description: First, peripheral blood mononuclear cells (PBMC) were separated from whole blood by specific gravity centrifugation. Then, the isolated peripheral blood mononuclear cells were added to RPMI-1640 medium (containing 10% fetal bovine serum, penicillin, streptomycin, L-glutamine, and 2-mercaptoethanol), and cultured in a 96-well plate at 37° C. under 5% CO2 for 0 to 1 hour. The test compound dissolved in dimethyl sulfoxide was added to each well, followed by further culture at 37° C. under 5% CO2 for 1 hour. A medium containing only dimethyl sulfoxide instead of the test compound was added to the control well. […]
(§1) The measurement results obtained by measuring the TNFα inhibitory activity and IL-5 inhibitory activity (50% inhibitory concentration) of the test compounds by the above method were evaluated in accordance with the following evaluated basis; A: less than 10 nM, B: 10 nM or more and less than 100 nM, and C: 100 nM or more. In addition, the measurement results obtained by measuring the IL-17A inhibitory activity, IL-23 inhibitory activity, IL-4 inhibitory activity, and IL-13 inhibitory activity (50% inhibitory concentration) of the test compounds were evaluated in accordance with the following evaluated basis; A: less than 500 nM, B: 500 nM or more and less than 5000 nM, and C: 5000 nM or more.

IL-17A = assay: Cytokine suppression using whole human blood: IL-17A (phytohaemagglutinin stimulus); type: cell-based; conditions: read-out: IL-17A Inhibitory Activity, Human Whole Blood (Test Example 3)
Description: The test compound dissolved in dimethyl sulfoxide was added to a 96-well plate, and RPMI-1640 medium and human peripheral blood containing sodium heparin were added, followed by culture at 37° C. under 5% CO2 for 1 hour. A medium containing only dimethyl sulfoxide instead of the test compound was added to the control well. […]
After collecting the culture supernatant after culturing, the amount of each cytokine was measured by the sandwich ELISA method. […]
as §1, with “100” for “10”, “500” for “100”, “activity and” for “activity, IL-23 inhibitory activity,”, “IL-4” for “IL-4 inhibitory activity, and IL-13”

SMILES | arthritis score [1] | edema rate [1] | IC50 (IL-23) [µM] | IC50 (IL-17A) [µM]
CCOc1cc([C@@H](CS(C)(=O)=O)N2C(=O)c3cccc(NC(C)=O)c3C2=O)ccc1OC [apremilast, reference compound] | B (B: 2 or more and less than 3) | B (B: 10% or more and less than 20%) | ≥ 5 | ≥ 5
CC(C)(O)C(F)(F)Oc1ccc(-c2nccs2)c2oc(N3CC4CC(C3)N4)nc12 [Example 248, 1-((2-(3,6-Diazabicyclo[3.1.1]heptan-3-yl)-7-(thiazol-2-yl)benzo[d]oxazol-4-yl)oxy)-1,1-difluoro-2-methylpropan-2-ol] | A (A: less than 2) | A (A: less than 10%) | < 0.5 | < 0.5
